According to US20110166121A1 (LG LIFE SCIENCES LTD., priority 2008, published 2011):

Tests used:
[1] = molecular target: T1, Human P2Y12 receptor (Homo sapiens, UniProt Q9H244); assay: Human P2Y12 receptor cell membrane binding assay with [3H] 2-Mes-ADP; conditions: 1 nM [3H] 2-Mes-ADP, membranes of HEK cells expressing P2Y12 receptor; read-out: Binding activity (IC50)
T1 construct: expressed in transfected cells; host or cells: HEK cells
Protocol: Human P2Y12 Receptor Cell Membrane Binding Assay with [^3H] 2-Mes-ADP
Whether test compounds bind to P2Y12 receptor is measured by [3H]-2MesADP binding in HEK cells expressing P2Y12 receptor. The efficacy according to the amount of test compound can be known through the above test, competitive binding test to P2Y12 receptor, in which the binding material (2-Mes-ADP) is labeled with radioactivity isotope and then the extent of inhibition against the binding of radioactively labeled material is measured.
Preparation of P2Y12 Membrane Protein Fraction
Harvested P2Y12 cells were resuspended with Hypotonic buffer (10 mM HEPES, 10 mM NaCl, 1 mM EDTA, 1 mM EGTA pH 7.4) containing protease inhibitor cocktail. Following the incubation on ice for 15 min, cells were homogenized on ice (Glass/Teflon homogenizer; 1,000 rpm, 10 strokes). The supernant was taken from centrifugation at 500×g for 15 min and then recentrifuged the supernant at 30,000 rpm for 30 min. The membrane pellet was adjusted to 1 mg/mL concentration and stored at −80° C.
P2Y12 Receptor Cell Membrane Binding Assay with [3H] 2-Mes-ADP
The volume of 100 μL of 200 μg membrane protein was aliquoted into 96 well plate. 50 μL volume of test compounds and [^3H] 2-Mes-ADP (final: 1 nM) were added into each well. The total reaction of 0.2 ml/well was incubated for 1 hour at R.T. The reaction was terminated by filtration through GF/B filter using a 96-well cell harvester. […] Radioactivity bound to P2Y12 receptor membrane was counted in a scintillation counter. Total binding was determined with CPM of test group having no compound and non-specific binding was determined with CPM of test group containing 10 μM 2-Mes-ADP. Binding inhibition percent was calculated as follows: [100−(specific binding in the presence of test material/specific binding in the absence of test material×100)].

[2] = system: Human platelet aggregation caused by ADP; assay: Inhibition of ADP-induced platelet aggregation (Mimic-human PRP); assay type: cell-based; conditions: 20 μM ADP, human platelet concentrate diluted with PPP, absorption at 595 nm
In short: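 Human PRP diluted with PPP to 3–4×10^8 platelets/mL was preincubated 20 min at room temperature with compound (0.01–30 μM, DMSO), then stimulated with 20 μM ADP. Aggregation read as A595 increase at 3 min versus 0 and 20 μM ADP controls; Ki from sigmoidal non-linear regression.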

T1 sequence (Q9H244 whole entry): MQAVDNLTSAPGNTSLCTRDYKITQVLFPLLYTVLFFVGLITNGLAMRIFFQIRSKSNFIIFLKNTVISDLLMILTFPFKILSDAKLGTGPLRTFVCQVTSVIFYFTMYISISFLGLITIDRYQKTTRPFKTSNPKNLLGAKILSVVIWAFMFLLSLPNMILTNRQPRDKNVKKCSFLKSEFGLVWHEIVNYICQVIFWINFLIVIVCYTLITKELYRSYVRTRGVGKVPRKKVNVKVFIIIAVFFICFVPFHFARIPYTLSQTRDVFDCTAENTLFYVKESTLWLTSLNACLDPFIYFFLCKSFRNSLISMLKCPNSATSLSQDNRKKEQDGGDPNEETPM

**Q.** Which IC50 [1] does the source give for CCCc1cc2c(N3CCn4c(nnc4C(F)(F)F)C3)nc(NCC(O)CO)nc2s1 (stereo not drawn) [Example 1-2, 3-[6-Propyl-4-(3-trifluoromethyl-5,6-dihydro-8H-[1,2,4]triazolo[4,3-a]pyrazin-7-yl)-thieno[2,3-d]pyrimidin-2-ylamino]-propane-1,2-diol] here?
**A.** The IC50 was 160 nM.

**Q.** Which IC50 [1] does the source give for CCCc1cc2c(N3CCn4c(nnc4C(F)(F)F)C3)nc(N3CCc4[nH]ncc4C3)nc2s1 [Example 1-76, 7-[6-Propyl-2-(1,4,6,7-tetrahydro-pyrazolo[4,3-c]pyridin-5-yl)-thieno[2,3-d]pyrimidin-4-yl]-3-trifluoromethyl-5,6,7,8-tetrahydro-[1,2,4]triazolo[4,3-a]pyrazine] here?
**A.** Its IC50 is 28 nM.

**Q.** For CCCc1cc2c(N3CCn4c(nnc4C(F)(F)F)C3)nc(OCCCNC(=O)OC)nc2s1 [Example 9-86, {3-[6-Propyl-4-(3-trifluoromethyl-5,6-dihydro-8H-[1,2,4]triazolo[4,3-a]pyrazin-7-yl)-thieno[2,3-d]pyrimidin-2-yloxy]-propyl}-carbamic acid methyl ester], which Ki [2] is on record?
**A.** Its Ki is 690 nM.

**Q.** How did the Ki [2] turn out when CCCc1cc2c(N3CCn4c(nnc4C(F)(F)F)C3)nc(OCCCNC(C)=O)nc2s1 [Example 9-87, N-{3-[6-Propyl-4-(3-trifluoromethyl-5,6-dihydro-8H-[1,2,4]triazolo[4,3-a]pyrazin-7-yl)-thieno[2,3-d]pyrimidin-2-yloxy]-propyl}-acetamide] was run?
**A.** The Ki was 430 nM.

**Q.** CCCc1cc2c(N3CCn4c(nnc4C(F)(F)F)C3)nc(OCCCCNC(=O)OC)nc2s1 [Example 9-88, {4-[6-Propyl-4-(3-trifluoromethyl-5,6-dihydro-8H-[1,2,4]triazolo[4,3-a]pyrazin-7-yl)-thieno[2,3-d]pyrimidin-2-yloxy]-butyl}-carbamic acid methyl ester] was tested. Which Ki [2] did it give?
**A.** The Ki was 420 nM.

**Q.** CCCc1cc2c(N3CCn4c(nnc4C(F)(F)F)C3)nc(OCCCCNC(C)=O)nc2s1 [Example 9-89, N-{4-[6-Propyl-4-(3-trifluoromethyl-5,6-dihydro-8H-[1,2,4]triazolo[4,3-a]pyrazin-7-yl)-thieno[2,3-d]pyrimidin-2-yloxy]-butyl}-acetamide] was tested. Which Ki [2] did it give?
**A.** Its Ki is 290 nM.

**Q.** How did the Ki [2] turn out when CCCc1cc2c(N3CCn4c(nnc4C(F)(F)F)C3)nc(OCCCNC=O)nc2s1 [Example 9-90, N-{3-[6-Propyl-4-(3-trifluoromethyl-5,6-dihydro-8H-[1,2,4]triazolo[4,3-a]pyrazin-7-yl)-thieno[2,3-d]pyrimidin-2-yloxy]-propyl}-formamide] was run?
**A.** The Ki was 110 nM.

**Q.** With CCCc1cc2c(N3CCn4c(nnc4C(F)(F)F)C3)nc(OCCCCNC=O)nc2s1 [Example 9-91, N-{4-[6-Propyl-4-(3-trifluoromethyl-5,6-dihydro-8H-[1,2,4]triazolo[4,3-a]pyrazin-7-yl)-thieno[2,3-d]pyrimidin-2-yloxy]-butyl}-formamide] as the compound, how does the Ki [2] read?
**A.** Its Ki is 190 nM.

**Q.** With CCCc1cc2c(N3CCn4c(nnc4C(F)(F)F)C3)nc(OCCCn3cccc3)nc2s1 [Example 9-92, 7-[6-Propyl-2-(3-pyrrol-1-yl-propoxy)-thieno[2,3-d]pyrimidin-4-yl]-3-trifluoromethyl-5,6,7,8-tetrahydro-[1,2,4]triazolo[4,3-a]pyrazine] as the compound, how does the Ki [2] read?
**A.** The Ki was 1300 nM.

**Q.** For CCCc1cc2c(N3CCn4c(nnc4C(F)(F)F)C3)nc(OCCN(C)C=O)nc2s1 [Example 9-93, N-Methyl-N-{2-[6-propyl-4-(3-trifluoromethyl-5,6-dihydro-8H-[1,2,4]triazolo[4,3-a]pyrazin-7-yl)-thieno[2,3-d]pyrimidin-2-yloxy]-ethyl}-formamide], which Ki [2] is on record?
**A.** The Ki was 52 nM.

**Q.** How did the Ki [2] turn out when CCCc1cc2c(N3CCn4c(nnc4C(F)(F)F)C3)nc(N3CC[C@H](N(CCO)C(=O)OC)C3)nc2s1 [Example 9-94, (2-Hydroxy-ethyl)-{(S)-1-[6-propyl-4-(3-trifluoromethyl-5,6-dihydro-8H-[1,2,4]triazolo[4,3-a]pyrazin-7-yl)-thieno[2,3-d]pyrimidin-2-yl]-pyrrolidin-3-yl}-carbamic acid methyl ester] was run?
**A.** The Ki was 280 nM.

**Q.** With CCCc1cc2c(N3CCn4c(nnc4C(F)(F)F)C3)nc(OCCN(C)C(=O)OC)nc2s1 [Example 9-95, Methyl-{2-[6-propyl-4-(3-trifluoromethyl-5,6-dihydro-8H-[1,2,4]triazolo[4,3-a]pyrazin-7-yl)-thieno[2,3-d]pyrimidin-2-yloxy]-ethyl}-carbamic acid methyl ester] as the compound, how does the Ki [2] read?
**A.** The Ki was 7.2 nM.

**Q.** Which Ki [2] does the source give for CCCc1cc2c(N3CCn4c(nnc4C(F)(F)F)C3)nc(N3CC[C@H](N(CCO)C(C)=O)C3)nc2s1 [Example 9-96, N-(2-Hydroxy-ethyl)-N-{(S)-1-[6-propyl-4-(3-trifluoromethyl-5,6-dihydro-8H-[1,2,4]triazolo[4,3-a]pyrazin-7-yl)-thieno[2,3-d]pyrimidin-2-yl]-pyrrolidin-3-yl}-acetamide] here?
**A.** The Ki was 78 nM.

**Q.** For CCCc1cc2c(N3CCn4c(nnc4C(F)(F)F)C3)nc(OCCN(C)C(C)=O)nc2s1 [Example 9-97, N-Methyl-N-{2-[6-propyl-4-(3-trifluoromethyl-5,6-dihydro-8H-[1,2,4]triazolo[4,3-a]pyrazin-7-yl)-thieno[2,3-d]pyrimidin-2-yloxy]-ethyl}-acetamide], which Ki [2] is on record?
**A.** The Ki was 6 nM.

**Q.** With CCCc1cc2c(N3CCn4c(nnc4C(F)(F)F)C3)nc(OCCN(CCO)C(=O)OC)nc2s1 [Example 9-98, (2-Hydroxy-ethyl)-{2-[6-propyl-4-(3-trifluoromethyl-5,6-dihydro-8H-[1,2,4]triazolo[4,3-a]pyrazin-7-yl)-thieno[2,3-d]pyrimidin-2-yloxy]-ethyl}-carbamic acid methyl ester] as the compound, how does the Ki [2] read?
**A.** Its Ki is 23 nM.

**Q.** Which Ki [2] does the source give for CCCc1cc2c(N3CCn4c(nnc4C(F)(F)F)C3)nc(OCCN3CCOC3=O)nc2s1 [Example 9-99, 3-{2-[6-Propyl-4-(3-trifluoromethyl-5,6-dihydro-8H-[1,2,4]triazolo[4,3-a]pyrazin-7-yl)-thieno[2,3-d]pyrimidin-2-yloxy]-ethyl}-oxazolidin-2-one] here?
**A.** The Ki was 4 nM.

**Q.** How did the Ki [2] turn out when CCCc1cc2c(N3CCn4c(nnc4C(F)(F)F)C3)nc(OCCN(CCOC(C)=O)C(C)=O)nc2s1 [Example 9-100, Acetic Acid 2-(acetyl-{2-[6-propyl-4-(3-trifluoromethyl-5,6-dihydro-8H-[1,2,4]triazolo[4,3-a]pyrazin-7-yl)-thieno[2,3-d]pyrimidin-2-yloxy]-ethyl}-amino)-ethyl ester] was run?
**A.** Its Ki is 38 nM.

**Q.** CCCc1cc2c(N3CCn4c(nnc4C(F)(F)F)C3)nc(OCCN(C=O)CCO)nc2s1 [Example 9-101, N-(2-Hydroxy-ethyl)-N-{2-[6-propyl-4-(3-trifluoromethyl-5,6-dihydro-8H-[1,2,4]triazolo[4,3-a]pyrazin-7-yl)-thieno[2,3-d]pyrimidin-2-yloxy]-ethyl}-formamide] was tested. Which Ki [2] did it give?
**A.** Its Ki is 12 nM.

**Q.** With CCCc1cc2c(N3CCn4c(nnc4C(F)(F)F)C3)nc(OCCN(CCO)C(C)=O)nc2s1 [Example 9-102, N-(2-Hydroxy-ethyl)-N-{2-[6-propyl-4-(3-trifluoromethyl-5,6-dihydro-8H-[1,2,4]triazolo[4,3-a]pyrazin-7-yl)-thieno[2,3-d]pyrimidin-2-yloxy]-ethyl}-acetamide] as the compound, how does the Ki [2] read?
**A.** The Ki was 8 nM.

**Q.** With CCCc1cc2c(N3CCn4c(nnc4C(F)(F)F)C3)nc(N(C)CCC#N)nc2s1 [Example 9-103, 3-{Methyl-[6-propyl-4-(3-trifluoromethyl-5,6-dihydro-8H-[1,2,4]triazolo[4,3-a]pyrazin-7-yl)-thieno[2,3-d]pyrimidin-2-yl]-amino}-propionitrile] as the compound, how does the Ki [2] read?
**A.** The Ki was 70 nM.

**Q.** How did the Ki [2] turn out when CCCc1cc2c(N3CCn4c(nnc4C(F)(F)F)C3)nc(N(C)CCC(N)=O)nc2s1 [Example 9-104, 3-{Methyl-[6-propyl-4-(3-trifluoromethyl-5,6-dihydro-8H-[1,2,4]triazolo[4,3-a]pyrazin-7-yl)-thieno[2,3-d]pyrimidin-2-yl]-amino}-propionamide] was run?
**A.** Its Ki is 14 nM.

**Q.** How did the Ki [2] turn out when CCCc1cc2c(N3CCn4c(nnc4C(F)(F)F)C3)nc(OCCN3C(=O)CNC3=O)nc2s1 [Example 9-105, 3-{2-[6-Propyl-4-(3-trifluoromethyl-5,6-dihydro-8H-[1,2,4]triazolo[4,3-a]pyrazin-7-yl)-thieno[2,3-d]pyrimidin-2-yloxy]-ethyl}-imidazolidine-2,4-dione] was run?
**A.** Its Ki is over 3000 nM.

**Q.** Which Ki [2] does the source give for CCCc1cc2c(N3CCn4c(nnc4C(F)(F)F)C3)nc(N(C)CCO)nc2s1 [Example 9-106, 2-{Methyl-[6-propyl-4-(3-trifluoromethyl-5,6-dihydro-8H-[1,2,4]triazolo[4,3-a]pyrazin-7-yl)-thieno[2,3-d]pyrimidin-2-yl]-amino}-ethanol] here?
**A.** Its Ki is 140 nM.

**Q.** With CCCc1cc2c(N3CCn4c(nnc4C(F)(F)F)C3)nc(NC(=O)OC)nc2s1 [Example 9-107, [6-Propyl-4-(3-trifluoromethyl-5,6-dihydro-8H-[1,2,4]triazolo[4,3-a]pyrazin-7-yl)-thieno[2,3-d]pyrimidin-2-yl]-carbamic acid methyl ester] as the compound, how does the Ki [2] read?
**A.** The Ki was 170 nM.
